Measured values: ChEMBL document CHEMBL1201862, “PubChem BioAssay data set” (2004)
Active and inactive are the calls of the source.

What was measured:
[1] = biological target: NAD-dependent protein deacylase sirtuin-5, mitochondrial (Homo sapiens, UniProt Q9NXA8); assay: SIRT5 desuccinylase inhibitors, dose response, biochemical, fluorescence imaging, cherry-pick, set 5 (AID 720591);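 also: desuccinylation of succinyl peptide AMC substrate read as fluorescence after trypsin release; potency of inhibitors that lower fluorescence and may act on trypsin instead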
[2] = biological target: Disintegrin and metalloproteinase domain-containing protein 17 (Homo sapiens, UniProt P78536); assay: ADAM17 protease inhibitors, dose response, counter-screen for ADAM10 exosite inhibitor project, biochemical, quenched FRET substrate (AID 743253)
[3] = biological target: T1, Heat shock factor protein 1 (Mus musculus, UniProt P38532); assay: HSF1 potentiators in luciferase reporter cells, confirmation, cell-based, NIH3T3, luminescence, dose retest (AID 435004); assay type: functional;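 also: stress induced by proteasome inhibitor MG132 added 30 min after compound; luciferase reporter driven by HSF1 response element in NIH3T3 cells; actives raise luminescence as potentiators of the MG132 stress response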
T1 sequence (P38532 whole entry): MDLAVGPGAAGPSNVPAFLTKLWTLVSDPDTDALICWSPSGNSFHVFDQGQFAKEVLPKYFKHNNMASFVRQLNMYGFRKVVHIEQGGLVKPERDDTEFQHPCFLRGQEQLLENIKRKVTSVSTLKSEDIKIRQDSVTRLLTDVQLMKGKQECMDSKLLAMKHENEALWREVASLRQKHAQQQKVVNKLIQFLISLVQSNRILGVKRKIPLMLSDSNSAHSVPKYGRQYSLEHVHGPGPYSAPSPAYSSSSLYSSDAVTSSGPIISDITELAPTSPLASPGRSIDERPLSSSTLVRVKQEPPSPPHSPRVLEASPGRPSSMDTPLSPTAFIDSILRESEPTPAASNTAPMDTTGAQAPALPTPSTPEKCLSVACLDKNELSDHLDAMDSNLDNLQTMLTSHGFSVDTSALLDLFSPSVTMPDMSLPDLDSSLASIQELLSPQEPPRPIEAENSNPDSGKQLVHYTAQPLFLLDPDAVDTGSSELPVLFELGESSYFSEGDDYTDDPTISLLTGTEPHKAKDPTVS

[4] = biological target: T2, Oxysterols receptor LXR-beta (Homo sapiens, UniProt P55055); assay type: functional, cell-based;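 also: agonist activity at LXR measured by a cell-based luminescence readout across a dose range, run as a counterscreen for daf-12 agonists; HEK293 cells with Gal4-LXR fusion and GAL4-driven luciferase reporter; potency for activation of Gal4-LXR reporter so compounds are agonists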
T2 sequence (P55055 whole entry): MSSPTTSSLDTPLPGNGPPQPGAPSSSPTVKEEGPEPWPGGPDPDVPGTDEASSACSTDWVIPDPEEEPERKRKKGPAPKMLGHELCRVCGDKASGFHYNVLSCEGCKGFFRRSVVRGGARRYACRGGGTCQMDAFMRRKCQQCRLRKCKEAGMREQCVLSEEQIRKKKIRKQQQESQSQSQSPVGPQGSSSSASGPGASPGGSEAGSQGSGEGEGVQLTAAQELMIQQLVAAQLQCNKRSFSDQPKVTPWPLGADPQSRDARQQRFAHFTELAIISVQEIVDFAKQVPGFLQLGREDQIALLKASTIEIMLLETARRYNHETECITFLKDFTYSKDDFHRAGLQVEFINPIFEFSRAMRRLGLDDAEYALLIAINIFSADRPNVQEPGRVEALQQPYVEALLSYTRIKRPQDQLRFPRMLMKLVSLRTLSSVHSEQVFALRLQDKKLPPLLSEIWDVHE

[5] = biological target: T3, Rac GTPase-activating protein 1 (Homo sapiens, UniProt Q9H0H5); assay: MgcRacGAP GTPase-activating activity inhibitors, confirmation, biochemical, ADP Hunter fluorescence, primary and confirmatory (AID 624330); assay type: functional
T3 sequence (Q9H0H5 whole entry): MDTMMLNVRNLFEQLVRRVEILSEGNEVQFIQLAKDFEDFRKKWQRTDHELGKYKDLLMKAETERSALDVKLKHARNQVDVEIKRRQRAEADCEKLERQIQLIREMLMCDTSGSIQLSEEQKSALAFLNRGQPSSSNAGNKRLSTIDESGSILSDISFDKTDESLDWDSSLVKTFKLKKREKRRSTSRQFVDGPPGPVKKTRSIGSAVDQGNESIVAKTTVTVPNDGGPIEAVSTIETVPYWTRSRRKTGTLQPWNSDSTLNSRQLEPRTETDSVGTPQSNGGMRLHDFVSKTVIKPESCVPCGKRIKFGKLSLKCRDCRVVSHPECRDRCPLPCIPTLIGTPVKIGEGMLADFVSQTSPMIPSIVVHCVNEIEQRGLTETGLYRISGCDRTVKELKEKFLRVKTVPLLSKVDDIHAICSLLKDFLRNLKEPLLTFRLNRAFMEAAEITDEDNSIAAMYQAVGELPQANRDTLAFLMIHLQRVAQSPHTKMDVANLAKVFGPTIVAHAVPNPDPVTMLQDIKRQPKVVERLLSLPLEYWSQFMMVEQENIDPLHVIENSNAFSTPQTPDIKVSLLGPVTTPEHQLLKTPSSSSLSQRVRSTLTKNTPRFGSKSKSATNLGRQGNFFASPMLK

[6] = ADAM10 inhibitors, peptide cleavage, dose response, biochemical, QFRET (AID 743254);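 also: ADAM10 enzyme with the DM2 quenched FRET peptide as substrate; EDANS fluorescence gain as the protease cuts the substrate; inhibitor potency against ADAM10 proteolytic activity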
[7] = HepG2 cell cytotoxicity, dose response, cytotoxicity control, plate reader, dry powder samples (AID 1159569); assay type: functional, cell-based;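 also: inhibitor potency with signal falling toward the positive control level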
[8] = cytotoxicity in COV434 cells, dose response, cytotoxicity control for PAX8 inhibitor project, cell-based, plate reader, dry powder, SA7 (AID 743145); assay type: functional
[9] = PAX2 cell-based inhibition, dose response, selectivity assay for PAX8 inhibitor project, plate reader, dry powder samples (AID 743048); assay type: functional;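 also: HEK293 cells carrying a WT1 promoter luciferase reporter driven by expressed Pax2; potency is for inhibition of Pax2 driven reporter signal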
[10] = P. falciparum ATP4 D1247Y mutant growth inhibitors, dose response, NITD609-resistant line, SYBR Green, dry powder (AID 1159571); assay type: functional, cell-based;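 also: parasites synchronized at ring stage by sorbitol before testing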
[11] = PAX5 activity inhibitors, dose response, selectivity assay for PAX8 inhibitor project, cell-based, plate reader, dry powder samples (AID 743047); assay type: functional;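 also: HEK293 cells carrying a Pax5 driven CD19 promoter luciferase reporter; potency of inhibitors that lower reporter luminescence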
[12] = P. falciparum Dd2 growth inhibitors, dose response, SYBR Green, dry powder samples (AID 1159566); assay type: functional, cell-based;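 also: potency for growth inhibition with lower SYBR green DNA signal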
[13] = cytotoxicity in OVCAR4 cells, dose response, cytotoxicity control for PAX8 inhibitor project, cell-based, plate reader, dry powder, SA11 (AID 743150); assay type: functional; details: OVCAR-4
[14] = IGROV1 ovarian cancer cell cytotoxicity, dose response, PAX8 inhibitor project, plate reader, dry powder samples (AID 743043); assay type: functional, cell-based; details: IGROV-1
[15] = IOSE-T80 ovarian epithelial cell cytotoxicity, dose response, cytotoxicity control for PAX8 inhibitor project, plate reader, dry powder samples (AID 743045); assay type: functional, cell-based
[16] = cytotoxicity in COV362 ovarian cancer cells, dose response, cytotoxicity control for PAX8 inhibitor project, cell-based, plate reader, dry powder, SA12 (AID 743144); assay type: functional
[17] = HepG2 cell cytotoxicity, dose response, cytotoxicity control, cherry-picked samples (AID 1159577); assay type: functional, cell-based
[18] = biological target: Paired box protein Pax-8 (Homo sapiens, UniProt Q06710); assay: inhibitors of PAX8-driven TPO luciferase reporter, dose response, RMG-I cells, cherry-pick (AID 687027); assay type: functional, cell-based;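 also: luciferase reporter driven by Pax8 target thyroperoxidase promoter measured by SteadyGlo luminescence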
[19] = NIH:OVCAR-3 ovarian cancer cell cytotoxicity, dose response, PAX8 inhibitor project, plate reader, dry powder samples (AID 743044); assay type: functional, cell-based
[20] = P. falciparum 3D7-ScDHODH growth inhibitors, dose response, SYBR Green, dry powder samples (AID 1159570); assay type: functional, cell-based;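 also: parasite growth measured after 72 hours of compound exposure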
[21] = P. falciparum Dd2 growth inhibitors, dose response, SYBR Green, cherry-picked samples (AID 1159567); assay type: functional, cell-based
[22] = cytotoxicity in OVCAR8 ovarian cancer cells, dose response, PAX8 project, cell-based, plate reader, dry powder samples (AID 743197); assay type: functional; details: OVCAR-8
[23] = cytotoxicity dependent on PAX8, dose response, cell-based, plate reader, dry powder (AID 743049); assay type: functional
[24] = cytotoxicity in OV-90 ovarian cancer cells, dose response, PAX8 inhibitor project, cell-based, plate reader, dry powder, SA8 (AID 743149); assay type: functional
[25] = biological target: Potassium channel subfamily K member 3 (Homo sapiens, UniProt O14649); assay: TASK1 (KCNK3) potassium channel inhibitors, SAR follow-up, CHO cells, FluxOR thallium flux (AID 652212); assay type: functional
[26] = biological target: Potassium channel subfamily K member 9 (Homo sapiens, UniProt Q9NPC2); assay: TASK3 (KCNK9) channel inhibitors, thallium flux, SAR follow-up, selectivity assay for TASK1 inhibitor project, cell-based, FluxOR thallium flux, concentration-response (AID 652211); assay type: functional;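 also: potency is for inhibitors of the channel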
Sequence of Potassium channel subfamily K member 9 (Q9NPC2 whole entry): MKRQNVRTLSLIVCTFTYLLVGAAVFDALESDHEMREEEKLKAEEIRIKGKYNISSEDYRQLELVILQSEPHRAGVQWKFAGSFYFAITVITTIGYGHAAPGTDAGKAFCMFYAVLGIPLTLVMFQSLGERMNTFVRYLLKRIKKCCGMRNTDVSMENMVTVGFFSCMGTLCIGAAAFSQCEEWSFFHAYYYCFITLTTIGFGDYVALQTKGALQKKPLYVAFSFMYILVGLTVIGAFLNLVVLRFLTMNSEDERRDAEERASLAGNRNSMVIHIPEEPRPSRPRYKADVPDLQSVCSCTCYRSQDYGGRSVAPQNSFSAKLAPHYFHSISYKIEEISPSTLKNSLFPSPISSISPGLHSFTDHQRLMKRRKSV

Sequence of Disintegrin and metalloproteinase domain-containing protein 17 (P78536 whole entry, the tested form may be a part): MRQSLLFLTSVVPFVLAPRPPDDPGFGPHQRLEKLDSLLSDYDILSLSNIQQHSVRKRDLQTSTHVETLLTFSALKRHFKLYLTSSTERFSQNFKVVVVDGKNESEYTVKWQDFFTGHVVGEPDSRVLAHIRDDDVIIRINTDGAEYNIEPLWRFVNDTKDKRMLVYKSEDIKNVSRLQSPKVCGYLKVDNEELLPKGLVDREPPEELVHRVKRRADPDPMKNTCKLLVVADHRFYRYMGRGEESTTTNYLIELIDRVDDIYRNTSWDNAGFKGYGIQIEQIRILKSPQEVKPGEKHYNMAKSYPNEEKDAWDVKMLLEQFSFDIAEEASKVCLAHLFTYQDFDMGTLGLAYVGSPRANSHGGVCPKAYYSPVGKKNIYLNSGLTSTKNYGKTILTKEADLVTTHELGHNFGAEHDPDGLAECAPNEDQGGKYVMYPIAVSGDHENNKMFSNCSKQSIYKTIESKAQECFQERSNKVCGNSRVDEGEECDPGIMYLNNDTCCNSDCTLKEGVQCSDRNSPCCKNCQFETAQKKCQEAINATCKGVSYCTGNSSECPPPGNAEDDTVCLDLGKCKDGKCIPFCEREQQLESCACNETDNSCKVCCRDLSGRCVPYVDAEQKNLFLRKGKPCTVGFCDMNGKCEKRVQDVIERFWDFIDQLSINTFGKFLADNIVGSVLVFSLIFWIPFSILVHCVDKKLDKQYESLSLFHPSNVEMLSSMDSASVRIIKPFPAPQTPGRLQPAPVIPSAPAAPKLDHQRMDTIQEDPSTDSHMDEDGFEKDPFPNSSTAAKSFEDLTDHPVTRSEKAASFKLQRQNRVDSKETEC
Sequence of NAD-dependent protein deacylase sirtuin-5, mitochondrial (Q9NXA8 whole entry, the tested form may be a part): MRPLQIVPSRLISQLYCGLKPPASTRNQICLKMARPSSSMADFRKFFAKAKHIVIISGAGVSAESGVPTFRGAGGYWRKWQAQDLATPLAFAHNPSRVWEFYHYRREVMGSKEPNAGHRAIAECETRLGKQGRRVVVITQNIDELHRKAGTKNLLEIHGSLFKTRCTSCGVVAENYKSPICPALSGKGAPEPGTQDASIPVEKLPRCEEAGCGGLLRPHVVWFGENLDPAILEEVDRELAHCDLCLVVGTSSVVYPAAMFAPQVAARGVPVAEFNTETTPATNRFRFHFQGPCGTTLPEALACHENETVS
Sequence of Potassium channel subfamily K member 3 (O14649 whole entry): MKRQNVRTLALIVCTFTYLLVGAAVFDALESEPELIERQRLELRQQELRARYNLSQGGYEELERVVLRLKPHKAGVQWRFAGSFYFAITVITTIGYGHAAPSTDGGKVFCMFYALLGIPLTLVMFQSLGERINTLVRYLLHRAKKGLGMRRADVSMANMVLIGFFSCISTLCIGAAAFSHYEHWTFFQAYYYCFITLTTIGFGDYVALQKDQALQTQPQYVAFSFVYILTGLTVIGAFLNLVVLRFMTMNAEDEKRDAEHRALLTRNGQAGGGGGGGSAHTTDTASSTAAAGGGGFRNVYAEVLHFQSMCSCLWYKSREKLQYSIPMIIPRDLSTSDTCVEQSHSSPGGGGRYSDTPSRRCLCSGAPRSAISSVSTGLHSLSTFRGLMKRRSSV
Sequence of Paired box protein Pax-8 (Q06710 whole entry): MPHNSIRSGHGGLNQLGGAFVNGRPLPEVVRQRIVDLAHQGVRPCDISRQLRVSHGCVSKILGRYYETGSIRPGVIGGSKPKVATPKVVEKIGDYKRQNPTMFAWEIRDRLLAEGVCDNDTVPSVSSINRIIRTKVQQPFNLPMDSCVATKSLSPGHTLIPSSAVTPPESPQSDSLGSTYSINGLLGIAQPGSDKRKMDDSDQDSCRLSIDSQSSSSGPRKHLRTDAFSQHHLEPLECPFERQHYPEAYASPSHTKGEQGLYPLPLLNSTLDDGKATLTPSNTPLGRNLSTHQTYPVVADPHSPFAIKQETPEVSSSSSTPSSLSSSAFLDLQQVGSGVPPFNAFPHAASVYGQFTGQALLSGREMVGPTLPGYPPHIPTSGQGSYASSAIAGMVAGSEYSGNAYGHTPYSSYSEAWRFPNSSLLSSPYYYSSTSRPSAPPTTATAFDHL

CCc1ccccc1-n1c(SCC(=O)NC)nnc1-c1ccco1
AC50 [1]: > 30 µM (inactive)

CCc1ccc(-c2cn(C3CCCCC3)c(=S)[nH]2)cc1
IC50 [2]: > 69.5 µM (inactive)

Cc1cc(NC(=O)CSc2nc3c(cc2C#N)CCC3)no1
EC50 [3]: 0.83 µM (active)
EC50 [4]: > 67.6 µM (inactive)

Nc1ccc2c(c1)Cc1cc(N)c(Cl)cc1-2
EC50 [4]: > 67.4 µM (inactive)
IC50 [5]: 8.46 µM (active)

CC1(Cc2ccc(C(F)(F)F)o2)C(=O)Nc2ccc(-c3cccc(C(F)(F)F)c3)cc21 (centres undefined)
IC50 [6]: 11.3 µM (inactive)
IC50 [2]: > 69.6 µM (inactive)

CC(C)(C)c1ccc(S(=O)(=O)NC(=O)C2(C)CCN2C(=O)C2CCCCC2)cc1 (centres undefined)
AC50 [1]: > 30 µM (inactive)

COc1ccccc1C#Cc1ccc([C@H]2[C@@H](CO)N(C(=O)C3CCCCC3)[C@H]2C#N)cc1
AC50 [7]: 35.2 µM (active)
AC50 [8]: 20.6 µM (active)
AC50 [9]: 9.82 µM (active)
AC50 [10]: 1.53 µM (active)
AC50 [11]: 6.15 µM (active)
AC50 [12]: 0.684 µM (active)
AC50 [13]: 63.6 µM (active)
AC50 [14]: 44.8 µM (active)
AC50 [15]: 42.5 µM (active)
AC50 [16]: 36.4 µM (active)
AC50 [17]: > 39 µM (inactive)
AC50 [18]: 3.4 µM (active)
AC50 [19]: 18.9 µM (active)
AC50 [20]: 1.19 µM (active)
AC50 [21]: 1.36 µM (active)
AC50 [22]: 60.8 µM (active)
AC50 [23]: 12.2 µM (active)
AC50 [24]: 28.6 µM (active)

CCOc1ccccc1NC(=O)c1cccc(NC(=O)C(C)(C)C)c1
IC50 [25]: 1.32 µM (active)
IC50 [26]: 30.5 µM (active)
